Test [1] has as its system Leishmania donovani. Briefly: (§1) Antileishmanial activity against Leishmania donovani infections in hamsters (208 mg/kg). The class given is functional, organism-based.
Test [2] relates to Leishmania donovani. Briefly: Glucantime (meglumine antimoniate) index (G index) against Leishmania donovani infections in hamsters. It counts as functional.
Test [3] deals with Leishmania donovani. Briefly: Antileishmanial activity against Leishmania donovani infections in hamsters (0.81 mg/kg). It counts as functional.
Test [4] concerns Leishmania donovani. Briefly: Antileishmanial activity against Leishmania donovani infections in hamsters (at 13 mg/kg). The class given is functional.
Test [5] relates to Leishmania donovani. Briefly: Antileishmanial activity against Leishmania donovani infections in hamsters (3.25 mg/kg). It counts as functional.
In test [6] the test system is Leishmania donovani. As to the kind of experiment: Antileishmanial activity against Leishmania donovani infections in hamsters (at 52 mg/kg). It counts as functional.
The subject of test [7] is Leishmania donovani. The test is described as §1. It counts as functional.
For test [8], the system named is Leishmania donovani. As to the kind of experiment: Antileishmanial activity against Leishmania donovani infections in hamsters (208 mg/kg): Inactive. It counts as functional, organism-based.
Test [9] deals with Leishmania donovani. Briefly: Antileishmanial activity against Leishmania donovani infections in hamsters (0.2 mg/kg). The class given is functional.

Active and inactive are the calls of the source. The calls are words filed in the database; no cut-off is given here. Bounds are passed on as bounds.

Turning to `CCNC(=O)N1CCN(CCCCCCNc2cc(OC)cc3c(C)ccnc23)CC1.Cl`, the Suppression result is “Toxic” in the test with Leishmania donovani [1]; 35.9% in the test with Leishmania donovani [3]; 99.2% with Leishmania donovani [4]; 84.1% with Leishmania donovani [5]; 100% with Leishmania donovani [6]. For the same compound, the G index in the test on Leishmania donovani [2] was found to be 9.

Consider `CCN(CC)CCCCCCNc1cc(OC)c(Oc2cccc(C(F)(F)F)c2)c2c(C)ccnc12`, for which the Suppression entry in the test with Leishmania donovani [1] is “Toxic”; with Leishmania donovani [4] it was 99.6%; in the test on Leishmania donovani [6], 100%.

As to `COc1cc(NCCCCCCN2CCS(=O)(=O)CC2)c2nccc(C)c2c1`, the G index with Leishmania donovani [2] came to 0.5. Further, the results for the Suppression in the test with Leishmania donovani [4], with Leishmania donovani [7] and in the test with Leishmania donovani [6] were 35%, 100% and 67.6%, respectively.

Regarding `COc1cc(NCCCCCCN2CCN(c3ccccn3)CC2)c2nccc(C)c2c1`, in the test on Leishmania donovani [2], the G index worked out at 5. Also, the Suppression in the test with Leishmania donovani [3] came to 18.9%; with Leishmania donovani [4] it was 95.9%; in the test with Leishmania donovani [5], 24.4%; in the test with Leishmania donovani [7] it was 97.5%; with Leishmania donovani [6] it was 97.8%.

For `CCS(=O)(=O)N1CCN(CCCCCCNc2cc(OC)cc3c(C)ccnc23)CC1`, the G index with Leishmania donovani [2] was 4. The results for the Suppression with Leishmania donovani [4], with Leishmania donovani [7] and in the test with Leishmania donovani [6] were 94.8%, 99.9% and 99.8%, respectively.

With `COc1cc(NCCCCCCN2CCN(c3ccc(Cl)c(Cl)c3)CC2)c2nccc(C)c2c1`, the G index with Leishmania donovani [2] is on record as <1. Further, the Suppression in the test on Leishmania donovani [7] is 77.8%.

For `COc1cc(NCCCCCCN2CCN(CCCN(C)C)CC2)c2nccc(C)c2c1.Cl`, the Suppression result in the test with Leishmania donovani [1] was “Toxic”; in the test with Leishmania donovani [4], 65.8%; in the test on Leishmania donovani [6] it was 99.7%. Also, the G index in the test on Leishmania donovani [2] came out at 2.

`COc1cc(NCCCCCCN2CCN(CCOC(c3ccccc3)c3ccccc3)CC2)c2nccc(C)c2c1.Cl`: the G index in the test with Leishmania donovani [2] is on record as 5. Besides, the Suppression in the test on Leishmania donovani [4] is given as 83.5%; in the test on Leishmania donovani [7], 100%; in the test on Leishmania donovani [6] it was 99.5%.

With `COc1cc(NCCCCCCN2CC[S+]([O-])CC2)c2nccc(C)c2c1.Cl`, the Suppression entry in the test with Leishmania donovani [1] was “Toxic”; in the test with Leishmania donovani [4], 84.8%; in the test on Leishmania donovani [6], 92.8%. In the test with Leishmania donovani [2], the G index is 3.

As to `COc1cc(NCCCCCCN2CCN(CCCO)CC2)c2nccc(C)c2c1`, the Suppression entry is “Toxic” in the test on Leishmania donovani [1], 96.3% in the test on Leishmania donovani [4] and 97.8% with Leishmania donovani [6]. Besides, the G index in the test on Leishmania donovani [2] stood at 38.

On to `COc1cc(NCCCCCCN2CCN(C3CCCCC3)CC2)c2nccc(C)c2c1`, for which the Suppression result in the test on Leishmania donovani [8] is “inactive”.

With `COc1cc(NCCCCCCN2CCCN(C)CC2)c2nccc(C)c2c1`, the G index in the test with Leishmania donovani [2] is listed as 12. Further, the Suppression is given as 61% with Leishmania donovani [3]; 99.8% in the test on Leishmania donovani [4]; 91.2% in the test with Leishmania donovani [5]; 98.6% in the test on Leishmania donovani [7]; 99.4% in the test with Leishmania donovani [6].

For the compound `COc1cc(NCCCCCCN2CCN(CCO)CC2)c2nccc(C)c2c1Oc1cccc(C(F)(F)F)c1.Cl`, the results for the Suppression result in the test with Leishmania donovani [1], in the test on Leishmania donovani [4] and in the test with Leishmania donovani [6] were “Toxic”, 98% and 99.1%, respectively.

For the compound `CCCN(CCC)C(=O)N1CCN(CCCCCCNc2cc(OC)cc3c(C)ccnc23)CC1.Cl`, the G index in the test on Leishmania donovani [2] amounted to 6. Besides, the Suppression is 89.7% in the test with Leishmania donovani [4], 100% in the test on Leishmania donovani [7] and 99.4% with Leishmania donovani [6].

Take `CCN(CC)CCCCCCNc1cc(OC)cc2c(C)cc(C)nc12.Cl`: the G index in the test on Leishmania donovani [2] is 32.

For the compound `CCC(CC)C(=O)N1CCN(CCCCCCNc2cc(OC)cc3c(C)ccnc23)CC1.Cl`, the G index with Leishmania donovani [2] was found to be 2.6. The Suppression in the test with Leishmania donovani [4] came out at 56.6%; with Leishmania donovani [7] it was 98.6%; with Leishmania donovani [6], 99.3%.

Take `COc1cc(NCCCCCCN2CCN(C)CC2)c2nccc(C)c2c1.Cl`: in the test on Leishmania donovani [2], the G index turned out to be 26. The Suppression in the test on Leishmania donovani [3] was determined as 64.7%; in the test with Leishmania donovani [4], 99.7%; in the test with Leishmania donovani [5], 99.3%; in the test with Leishmania donovani [7], 99.7%; in the test on Leishmania donovani [6], 100%.

With `COc1cc(NCCCCCCN2CC(C)NC(C)C2)c2nccc(C)c2c1` (stereo not drawn), the Suppression result in the test with Leishmania donovani [1] was “Toxic”; in the test with Leishmania donovani [3], 97.9%; in the test on Leishmania donovani [4], 100%; in the test with Leishmania donovani [5], 99.8%; in the test on Leishmania donovani [9] it was 1.3%; in the test with Leishmania donovani [6], 100%. The compound also returned a G index in the test on Leishmania donovani [2] of 72.

Consider `COc1cc(NCCCCCCN2CC(C)OC(C)C2)c2nccc(C)c2c1.Cl` (stereo not drawn), for which the Suppression entry in the test on Leishmania donovani [1] was “Toxic”; in the test with Leishmania donovani [3], 61%; in the test on Leishmania donovani [4] it was 99.1%; with Leishmania donovani [5], 98.7%; in the test with Leishmania donovani [6] it was 99.1%. The G index with Leishmania donovani [2] worked out at 24.

Turning to `COc1cc(NCCCCCCN2CCN(C(=O)OCc3ccccc3)CC2)c2nccc(C)c2c1.Cl`, the Suppression result in the test with Leishmania donovani [1] was “Toxic”; with Leishmania donovani [4], 54.6%; with Leishmania donovani [6], 98%. The same compound displayed a G index in the test with Leishmania donovani [2] of 2.3.

Regarding `COc1cc(NCCCCCCN2C[C@@H](C)S[C@@H](C)C2)c2nccc(C)c2c1`, the Suppression result in the test with Leishmania donovani [1] was “Toxic”; in the test with Leishmania donovani [4], 81.1%; in the test on Leishmania donovani [6] it was 93.7%. In addition, the G index in the test on Leishmania donovani [2] was found to be 1.5.

On to `COc1cc(NCCCCCCN2CCN(S(=O)(=O)c3ccccc3)c3ccccc32)c2nccc(C)c2c1`, for which the Suppression result in the test on Leishmania donovani [8] was “inactive”.

As for `COc1cc(NCCCCCCNC(C)C)c2nccc(C)c2c1Oc1cccc(C(F)(F)F)c1`, the Suppression entry in the test on Leishmania donovani [1] was “Toxic”; with Leishmania donovani [4], 98.6%.

In the test with Leishmania donovani [2], `CC/N=C(\S)N1CCN(CCCCCCNc2cc(OC)cc3c(C)ccnc23)CC1.Cl` came in with a G index of 2.

For `COc1cc(NCCCCCCN2CCSCC2)c2nccc(C)c2c1.Cl`, the Suppression entry with Leishmania donovani [1] was “Toxic”; in the test on Leishmania donovani [3] it was 27.61%; with Leishmania donovani [4] it was 99.8%; with Leishmania donovani [5], 59.9%; with Leishmania donovani [6] it was 100%. Also, in the test on Leishmania donovani [2], the G index is reported as 6.4.

For the compound `CCN(CC)CC(O)CN1CCN(CCCCCCNc2cc(OC)cc3c(C)ccnc23)CC1.Cl` (stereo not drawn), the Suppression result in the test on Leishmania donovani [1] was “Toxic”; with Leishmania donovani [4] it was 99.7%; with Leishmania donovani [5], 32.6%; with Leishmania donovani [6], 99.9%. Also, the G index in the test with Leishmania donovani [2] is reported as 6.

Consider `CCOC(=O)N1CCN(CCCCCCNc2cc(OC)cc3c(C)ccnc23)CC1`, for which the G index in the test on Leishmania donovani [2] is listed as 33. The Suppression in the test with Leishmania donovani [3] came out at 23.9%; with Leishmania donovani [4], 99.9%; in the test with Leishmania donovani [5] it was 99.1%; with Leishmania donovani [7], 99.5%; with Leishmania donovani [6], 99.9%.

For the compound `CCN(CC)C(=O)N1CCN(CCCCCCNc2cc(OC)cc3c(C)ccnc23)CC1.Cl`, the Suppression entry in the test with Leishmania donovani [1] is “Toxic”; with Leishmania donovani [4] it was 98.8%; with Leishmania donovani [5] it was 72.2%; in the test with Leishmania donovani [6], 98.6%. In the test on Leishmania donovani [2], this compound showed a G index of 8.

On to `COc1cc(NCCCCCCN2CCN(CCC(C)C)CC2C)c2nccc(C)c2c1.Cl` (stereo not drawn), for which the Suppression result with Leishmania donovani [1] was “Toxic”; in the test on Leishmania donovani [3], 96.6%; with Leishmania donovani [4], 98.9%; with Leishmania donovani [5], 100%; in the test with Leishmania donovani [9], 57.3%; in the test on Leishmania donovani [6] it was 99.8%. This compound also registered a G index in the test on Leishmania donovani [2] of 72.

On to `COc1cc(NCCCCCCN2CCNc3ccccc32)c2nccc(C)c2c1`, for which the Suppression result in the test on Leishmania donovani [8] is “inactive”.

In the test with Leishmania donovani [2], `COc1cc(NCCCCCCN2CCN(C(=O)N3CCCC3)CC2)c2nccc(C)c2c1.Cl` yielded a G index of 2.3. Moreover, the Suppression in the test with Leishmania donovani [3] was 4.6%; with Leishmania donovani [4], 100%; in the test with Leishmania donovani [5], 98.8%; in the test on Leishmania donovani [7] it was 100%; in the test with Leishmania donovani [6] it was 99.8%.

For the compound `COc1cc(NCCCCCCN2CCN(C(c3ccccc3)c3ccc(Cl)cc3)CC2)c2nccc(C)c2c1.Cl.Cl` (stereo not drawn), the Suppression result is “Toxic” in the test with Leishmania donovani [1]; 70% in the test with Leishmania donovani [3]; 99.4% in the test on Leishmania donovani [4]; 100% in the test on Leishmania donovani [5]; 96.8% in the test on Leishmania donovani [6]. For the same compound, the G index in the test on Leishmania donovani [2] turned out to be 23.

Compound `COc1cc(NCCCCCCN2C[C@H](C)S[C@@H](C)C2)c2nccc(C)c2c1` yielded a G index with Leishmania donovani [2] of 0.4. The values for the Suppression with Leishmania donovani [4], with Leishmania donovani [7] and in the test with Leishmania donovani [6] were 21.4%, 98.2% and 65%, respectively.

`COc1cc(NCCCCCCNC(C)C)c2nc(C)cc(C)c2c1.Cl` came in with a G index with Leishmania donovani [2] of 42.

As for `CCCCCCCCCCCCN1CCN(CCCCCCNc2cc(OC)cc3c(C)ccnc23)CC1`, the Suppression entry in the test on Leishmania donovani [8] was “inactive”.

Regarding `COc1cc(NCCCCCCN2CCN(CCCCCCNc3cc(OC)cc4c(C)ccnc34)CC2)c2nccc(C)c2c1`, the Suppression result in the test on Leishmania donovani [8] was “inactive”.

Consider `CCC(C)NCCCCCCNc1cc(OC)cc2c(C)cc(C)nc12.Cl` (stereo not drawn), for which, in the test on Leishmania donovani [2], the G index came out at 28.

`COc1cc(NCCCCCCN2CCN(C(=O)N(c3ccccc3)c3ccccc3)CC2)c2nccc(C)c2c1`: the Suppression result in the test on Leishmania donovani [8] is “inactive”.

`CCS(=O)(=O)CCN1CCN(CCCCCCNc2cc(OC)cc3c(C)ccnc23)CC1`: the G index in the test on Leishmania donovani [2] came to 19. For the same compound, the Suppression with Leishmania donovani [3] is 21.1%; with Leishmania donovani [4], 99.7%; with Leishmania donovani [5], 99.6%; with Leishmania donovani [7], 99.9%; in the test with Leishmania donovani [6], 99.5%.

In turn, `COc1cc(NCCCCCCN2CCN(CCO)CC2)c2nccc(C)c2c1.Cl` came in with a G index in the test with Leishmania donovani [2] of 104. In addition, the Suppression in the test on Leishmania donovani [3] was 85.8%; in the test on Leishmania donovani [4] it was 100%; with Leishmania donovani [5], 97%; in the test with Leishmania donovani [6], 100%.

These data come from ChEMBL document CHEMBL1122322, “Synthesis and antileishmanial activity of 6-methoxy-4-methyl-N-[6-(substituted-1-piperazinyl)hexyl]-8-quinolinamines and related compounds” (1983).
